What was measured:
M2R = biological target: T1, M2R (Homo sapiens, UniProt P08172); test: Ca2+ flux PAM activity against other muscarinic receptor subtypes, M2R; format: cell-based; conditions: in the presence of EC20 ACh; read-out: PAM activity against other muscarinic receptor subtypes M2R pIP
T1 sequence (P08172 1-466): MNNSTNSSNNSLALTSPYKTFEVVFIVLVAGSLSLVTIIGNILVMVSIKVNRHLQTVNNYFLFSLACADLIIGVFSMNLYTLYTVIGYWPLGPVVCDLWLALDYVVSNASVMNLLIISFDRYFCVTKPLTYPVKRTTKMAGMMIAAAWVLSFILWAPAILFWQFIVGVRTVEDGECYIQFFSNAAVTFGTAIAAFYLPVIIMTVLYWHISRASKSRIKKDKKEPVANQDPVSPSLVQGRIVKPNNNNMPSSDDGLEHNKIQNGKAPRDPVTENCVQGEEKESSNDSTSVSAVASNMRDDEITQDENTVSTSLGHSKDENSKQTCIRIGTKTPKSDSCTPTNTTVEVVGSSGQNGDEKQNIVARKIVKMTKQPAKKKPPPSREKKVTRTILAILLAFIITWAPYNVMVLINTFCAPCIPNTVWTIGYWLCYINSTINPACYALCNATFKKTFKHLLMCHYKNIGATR

M3R = M3R (Homo sapiens, UniProt P20309); test: Ca2+ flux PAM activity against other muscarinic receptor subtypes, M3R; format: cell-based; conditions: in the presence of EC20 ACh; read-out: PAM activity against other muscarinic receptor subtypes M3R pIP
M3R, sequence (P20309 whole entry): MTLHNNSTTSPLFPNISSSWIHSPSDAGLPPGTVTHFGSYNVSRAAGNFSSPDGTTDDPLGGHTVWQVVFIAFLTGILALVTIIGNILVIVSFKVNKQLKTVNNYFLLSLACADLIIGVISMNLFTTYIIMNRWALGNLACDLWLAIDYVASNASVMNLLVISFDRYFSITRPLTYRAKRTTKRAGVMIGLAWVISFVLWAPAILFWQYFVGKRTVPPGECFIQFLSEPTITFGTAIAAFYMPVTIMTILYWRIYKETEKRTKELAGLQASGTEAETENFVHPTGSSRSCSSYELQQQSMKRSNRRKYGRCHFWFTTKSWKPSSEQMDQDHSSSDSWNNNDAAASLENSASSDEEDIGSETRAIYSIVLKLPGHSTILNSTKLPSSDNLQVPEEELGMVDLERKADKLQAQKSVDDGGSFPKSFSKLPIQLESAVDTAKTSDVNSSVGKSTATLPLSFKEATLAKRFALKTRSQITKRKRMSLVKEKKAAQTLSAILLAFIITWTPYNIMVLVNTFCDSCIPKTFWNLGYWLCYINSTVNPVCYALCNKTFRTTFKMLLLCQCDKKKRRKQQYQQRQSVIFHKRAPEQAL

M4R = biological target: T2, M4R (Homo sapiens, UniProt P08173); test: Ca2+ flux PAM activity against other muscarinic receptor subtypes, M4R; format: cell-based; conditions: in the presence of EC20 ACh; read-out: PAM activity against other muscarinic receptor subtypes M4R pIP (converted)
T2 sequence (P08173 1-479): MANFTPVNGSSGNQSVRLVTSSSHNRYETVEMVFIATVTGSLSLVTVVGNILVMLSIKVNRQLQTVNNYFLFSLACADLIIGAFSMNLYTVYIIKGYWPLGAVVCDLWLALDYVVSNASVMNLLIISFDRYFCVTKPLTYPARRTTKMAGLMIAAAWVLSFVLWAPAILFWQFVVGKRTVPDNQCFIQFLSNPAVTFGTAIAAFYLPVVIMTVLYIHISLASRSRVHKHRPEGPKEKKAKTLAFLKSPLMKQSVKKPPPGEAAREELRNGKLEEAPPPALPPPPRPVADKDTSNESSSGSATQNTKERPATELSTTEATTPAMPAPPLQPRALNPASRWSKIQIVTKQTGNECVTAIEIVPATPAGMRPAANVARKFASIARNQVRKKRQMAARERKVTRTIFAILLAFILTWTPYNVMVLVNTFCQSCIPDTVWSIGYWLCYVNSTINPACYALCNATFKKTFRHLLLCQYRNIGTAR

M5R = biological target: T3, M5R (Homo sapiens, UniProt P08912); test: Ca2+ flux PAM activity against other muscarinic receptor subtypes, M5R; format: cell-based; conditions: in the presence of EC20 ACh; read-out: PAM activity against other muscarinic receptor subtypes M5R pIP
T3 sequence (P08912 1-532): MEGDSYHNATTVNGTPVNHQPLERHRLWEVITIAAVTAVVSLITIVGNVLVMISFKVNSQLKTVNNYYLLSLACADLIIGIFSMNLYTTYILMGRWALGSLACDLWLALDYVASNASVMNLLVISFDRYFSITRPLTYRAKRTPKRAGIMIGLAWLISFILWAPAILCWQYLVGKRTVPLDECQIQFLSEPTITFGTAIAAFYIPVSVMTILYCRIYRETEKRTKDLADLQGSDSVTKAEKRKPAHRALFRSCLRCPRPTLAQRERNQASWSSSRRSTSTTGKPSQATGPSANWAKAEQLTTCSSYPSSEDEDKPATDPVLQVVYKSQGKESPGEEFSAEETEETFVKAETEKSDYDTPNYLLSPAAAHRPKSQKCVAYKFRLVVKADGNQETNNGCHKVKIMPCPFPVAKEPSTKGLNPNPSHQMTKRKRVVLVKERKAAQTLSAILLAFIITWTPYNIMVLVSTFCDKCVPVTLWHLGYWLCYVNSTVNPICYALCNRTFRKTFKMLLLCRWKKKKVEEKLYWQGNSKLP

human M1R = biological target: T4, human M1R (Homo sapiens, UniProt P11229); test: Binding modulation assay, displacement of [3H]-pirenzepine by ACh, FreeStyle 293 cell membranes; design: expressed in transfected cells; host or cells: FreeStyle 293 cells (transient), cell membranes; conditions: for Kb: affinity of the PAM to the free M1R, read-out: pKB Mean (converted); for log α Mean / α-value: binding cooperativity between ACh and PAM
T4 sequence (P11229 1-460): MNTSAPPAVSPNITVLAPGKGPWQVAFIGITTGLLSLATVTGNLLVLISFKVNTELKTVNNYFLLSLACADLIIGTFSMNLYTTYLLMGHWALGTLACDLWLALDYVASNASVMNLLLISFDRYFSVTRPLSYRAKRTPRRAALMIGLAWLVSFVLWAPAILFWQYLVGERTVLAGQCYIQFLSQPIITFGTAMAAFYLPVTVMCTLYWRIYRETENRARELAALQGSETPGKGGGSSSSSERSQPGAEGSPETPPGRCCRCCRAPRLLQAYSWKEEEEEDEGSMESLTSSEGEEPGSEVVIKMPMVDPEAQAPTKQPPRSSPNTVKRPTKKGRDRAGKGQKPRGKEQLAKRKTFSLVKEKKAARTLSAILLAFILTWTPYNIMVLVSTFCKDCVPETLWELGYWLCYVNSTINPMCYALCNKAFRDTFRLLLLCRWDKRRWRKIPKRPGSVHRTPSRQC
Protocol: Binding assay was performed in 96-well plate format. Cell membranes from FreeStyle 293 cells transiently expressed human M1R were incubated with test compounds, ACh and 4 nM [^3H]-pirenzepine in an assay buffer (20 mM HEPES, 100 mM NaCl, 10 mM MgCl2, 0.1% fatty acid free BSA). After 2 h incubation at room temperature, cell membranes were transferred to GF/C filter plates (PerkinElmer, Massachusetts, USA) using cell-harvester (PerkinElmer) and washed 5 times with 300 μL of 50 mM Tris-HCl. Then, GF/C plates were dried at 42° C. 25 μL of microscint 0 (PerkinElmer) was added and the radioactivity was measured by Topcount (PerkinElmer). Non-specific bound was defined in the presence of 10 μM atropine.
All data were analyzed using GraphPad Prism 5 software (GraphPad Software Inc., California, USA). Radioligand binding data were globally fitted to the following allosteric ternary complex model:
[formula] where Y is the percentage of specific binding; [A], [B], and [C] are the concentrations of ACh, the allosteric modulator, and [^3H]-pirenzepine, respectively; KA, KB, and KC denote the equilibrium dissociation constants of ACh, the allosteric modulator, and [^3H]-pirenzepine, respectively; and αAB and […] are the cooperativities between the allosteric modulator and ACh or [^3H]-pirenzepine, respectively. […] The functional interactions between M1 PAMs and ACh were globally fitted to the following operational model of allosterism (Nat Rev Drug Discov. 2009; 8(1): 41-54 and Trends Pharmacol Sci. 2007; 28(8): 382-9)

Row | SMILES | EC50 (M2R) | EC50 (M3R) | EC50 (M4R) | EC50 (M5R) | Kb (human M1R) | log α Mean (human M1R) | α-value (human M1R)
1 | Cn1ccc(-c2ccc(CN3Cc4cccc(O[C@H]5CCCC[C@@H]5O)c4C3=O)cc2)n1 [Compound A, 7-(((1S,2S)-2-hydroxycyclohexyl)oxy)-2-(4-(1-methyl-1H-pyrazol-3-yl)benzyl)isoindolin-1-one] | > 10 µM | > 10 µM | 1 µM | > 10 µM | 26.3 µM | 3.30 | 2371
2 | Cn1cc(-c2ccc(CN3Cc4cccc(Oc5c(F)cccc5C#N)c4C3=O)cc2)cn1 [Compound B, 3-fluoro-2-((2-(4-(1-methyl-1H-pyrazol-4-yl)benzyl)-3-oxo-2,3-dihydro-1H-isoindol-4-yl)oxy)benzonitrile] | > 10 µM | > 10 µM | > 10 µM | > 10 µM | 0.977 µM | 1.18 | 16
3 | Cn1cc(-c2ccc(Cc3cc4c(=O)n([C@H]5CCCC[C@@H]5O)cnc4c4ccccc34)cn2)cn1 [Compound C, 3-((1S,2S)-2-hydroxycyclohexyl)-6-((6-(1-methyl-1H-pyrazol-4-yl)pyridin-3-yl)methyl)benzo[h]quinazoline-4(3H)-one, reference compound] | > 10 µM | > 10 µM | > 10 µM | > 10 µM | 0.288 µM | 3.25 | 1786
4 | Cc1c(Cc2ccc(-n3cccn3)cc2)cc2c(c1F)CN([C@H]1COCC[C@@H]1O)C2=O [Compound D, 4-fluoro-2-[(3S,4S)-4-hydroxytetrahydro-2H-pyran-3-yl]-5-methyl-6-[4-(1H-pyrazol-1-yl)benzyl]-2,3-dihydro-1H-isoindol-1-one] |  |  |  |  |  |  | 199
5 | O=c1c2cn(Cc3ccc(-n4cccn4)cc3)c3ccccc3c-2nn1-c1ccccc1F [Compound E, 2-(2-fluorophenyl)-5-(4-(1H-pyrazol-1-yl)benzyl)-2,5-dihydro-3H-pyrazolo[4,3-c]quinolin-3-one, reference compound] | > 10 µM | > 10 µM | > 10 µM | > 10 µM | 3.09 µM | 2.67 | 
6 | Cn1cc(-c2ccc(CN3Cc4cccc(OCCN5CCCCC5)c4C3=O)cc2)cn1 [Compound F, 2-(4-(1-methyl-1H-pyrazol-4-yl)benzyl)-7-(2-(piperidin-1-yl)ethoxy)isoindolin-1-one] | > 10 µM | > 10 µM | > 10 µM | > 10 µM | 9.12 µM | 1.54 | 
7 | Cn1cc(-c2ccc(CN3Cc4cccc(-c5ccn[nH]5)c4C3=O)cc2)cn1 [Compound G, 2-(4-(1-methyl-1H-pyrazol-4-yl)benzyl)-7-(1H-pyrazol-5-yl)isoindolin-1-one] | > 10 µM | > 10 µM | > 10 µM | > 10 µM | 14.8 µM | 0.56 | 

Source: patent publication US12298319B2, “Method for measuring alpha value of muscarinic M1 receptor positive allosteric modulators” (Takeda Pharmaceutical Company Limited, priority 2017, dated 2025)
